Results on 1 compound are retold here after US10787436B2, “Inhibitors of cyclin-dependent kinase 7 (CDK7)” (Dana-Farber Cancer Institute, Inc., priority 2012, dated 2020).

In test [1] the test system is Jurkat. Kind of test: Jurkat (proliferation, CellTiter-Glo). The format is cell-based. Conditions: read-out: Calculated IC50, Jurkat.
For test [2], the target named is CDK1/cyclin B (Homo sapiens (Human), UniProt P06493). The experiment in a line: Life Technologies Z'-Lyte kinase assay, CDK1. The format is biochemical. Conditions: read-out: Calculated IC50, CDK1/cyclin B.
Test [3] concerns the target CDK8/cyclin C (Homo sapiens (Human), UniProt P49336). The experiment in a line: Life Technologies LanthaScreen Eu kinase assay, CDK8. The format is binding. Conditions: read-out: Calculated IC50, CDK8/cyclin C.
Test [4] deals with IRAK1 (Homo sapiens (Human), UniProt P51617). Kind of test: Life Technologies Adapta kinase assay, IRAK1. Conditions: read-out: Calculated IC50, IRAK1. Type of test: biochemical.
Test [5] concerns MV4-11. Kind of test: Proliferation assay, CellTiter-Glo, 72 hour. Type of test: cell-based. Conditions: blood cancer cell line, read-out: Inhibition of proliferation, MV4-11. Background: Cellular ATP, detected with luciferase, serves as a proxy for viable cell number.
Test [6] relates to RS4-11. The experiment in a line: Proliferation assay, CellTiter-Glo, 72 hour. The format is cell-based. Conditions: blood cancer cell line, read-out: Inhibition of proliferation, RS4-11.
Test [7] relates to MDA-MB231. The experiment in a line: Proliferation assay, CellTiter-Glo, 72 hour. Conditions: breast cancer cell line, read-out: Inhibition of proliferation, MDA-MB231. The format is cell-based.
Test [8] concerns MCF10A. The experiment in a line: Proliferation assay, CellTiter-Glo, 72 hour. The format is cell-based. Conditions: non-tumorigenic breast epithelial cell line, read-out: Inhibition of proliferation, MCF10A.
Test [9] has as its system A673. Kind of test: Proliferation assay, CellTiter-Glo, 72 hour. Type of test: cell-based. Conditions: Ewing's sarcoma cell line, read-out: Inhibition of proliferation, A673.
In test [10] the test system is Hs822T. The experiment in a line: Proliferation assay, CellTiter-Glo, 72 hour. The format is cell-based. Conditions: Ewing's sarcoma cell line, read-out: Inhibition of proliferation, Hs822T.
The subject of test [11] is Hs863T. The experiment in a line: Proliferation assay, CellTiter-Glo, 72 hour. Conditions: Ewing's sarcoma cell line, read-out: Inhibition of proliferation, Hs863T. Type of test: cell-based.
Test [12] relates to RD-ES. The experiment in a line: Proliferation assay, CellTiter-Glo, 72 hour. Type of test: cell-based. Conditions: Ewing's sarcoma cell line, read-out: Inhibition of proliferation, RD-ES.
The test system of test [13] is 143B. Kind of test: Proliferation assay, CellTiter-Glo, 72 hour. The format is cell-based. Conditions: osteosarcoma cell line, read-out: Inhibition of proliferation, 143B.
Test [14] has as its system retinal pigment epithelial (RPE1) cells. Kind of test: Anti-proliferative assay, cell titer glo, 72 hours. The format is cell-based, human. How it is done: (§1) At indicated time points, cellular lysates were harvested at the indicated times points and immunoblotted for the indicated proteins. […] Anti-proliferative effects were determined using cell titer glo analysis. […] Anti-proliferative effects were determined using alamarBlue® analysis. […] Anti-proliferative effects were determined using cell titer glo analysis. […] Dose: i.v. 1 mg/kg and p.o. 10 mg/kg.
(§2) Proliferation assays were conducted over a 48-72 hour time period (as noted). […] Cancer cell line profiling was performed over a 72 time period using Alamar Blue reagent.
CDK7 inhibitors display strong antiproflierative effects in leukemia and lymphoma cancer cells. However, a better definition of the breadth of their therapeutic potential in other cell types has not been reported. […] The rationale for examining such a large panel of human cancer cell lines is based on the fact that there is substantial genetic heterogeneity among human tumor cells, even with the same histological origins. In general, the data reveal a bimodal distribution with cell lines displaying exquisite sensitivity or apparent complete insensitivity to the compound.

Test [15] has as its system multiple myeloma cell lines. The experiment in a line: Anti-proliferative effect in multiple myeloma cell lines with or without stromal cells, cell titer glo, 48-hour. The format is cell-based. Conditions: 48-hour treatment. How it is done: Clinical isolates of CLL were cultured with compounds of Formula (I) or flavopiridol and assessed for cell death after a 24 hour time course by Annexin V staining. […] Anti-proliferative effect was measured using cell titer glo analysis.
as §2

For test [16], the system named is BCL-XL. Kind of test: Immunoblot of BCL-2 family proteins in Loucy cells. Conditions: 12 to 48 hours. The format is cell-based. How it is done: as §1
(§3) Consistent with its covalent inhibitory mechanism, similar results were seen over the same time span following washout (FIGS. 6A to 6B).
A general note: In western blotting, separated proteins are transferred to a membrane and probed.

Test [17] concerns MCL-1 protein. The experiment in a line: Immunoblot of BCL-2 family proteins in Loucy cells. The format is cell-based. Conditions: after 12 hours. How it is done:
as §1, §3

The test system of test [18] is CDK7 occupancy. The experiment in a line: CDK7 ChIP-seq in Jurkat cells. The format is cell-based, human. How it is done:
After the indicated treatment time, cells were crosslinked for 10 minutes at room temperature by the addition of one-tenth of the volume of 11% formaldehyde solution (11% formaldehyde, 50 mM Hepes (pH 7.3), 100 mM NaCl, 1 mM EDTA (pH 8.0), 0.5 mM EGTA (pH 8.0)) to the growth media followed by two washes with PBS. Following the final PBS wash, supernatant was aspirated, and the cell pellet was flash frozen in liquid nitrogen. Frozen crosslinked cells were stored at −80° C.
50 μl of Dynal magnetic beads (Sigma) were blocked with 0.5% BSA (w/v) in PBS. Magnetic beads were bound with 5 μg of the indicated antibody. Antibodies used are as follows: Total RNAP II (Rpb1 N-terminus): Santa Cruz sc-899; CDK7: Bethyl A300-405A. Crosslinked cells were lysed with lysis buffer 1 (50 mM Hepes (pH 7.3), 140 mM NaCl, 1 mM EDTA, 10% glycerol, 0.5% NP-40, and 0.25% Triton X-100) and washed with lysis buffer 2 (10 mM Tris-HCl (pH 8.0), 200 mM NaCl, 1 mM EDTA (pH 8.0) and 0.5 mM EGTA (pH 8.0)). […]
Illumina sequencing libraries were generated, and data were processed according to Lin et al., Cell (2012) 151:56-67. […] These criteria preserved only reads that mapped uniquely to the genome with 1 or fewer mismatches. […]

pIC50: −log10 of the molar value.

Sequence of CDK1/cyclin B (P06493 whole entry): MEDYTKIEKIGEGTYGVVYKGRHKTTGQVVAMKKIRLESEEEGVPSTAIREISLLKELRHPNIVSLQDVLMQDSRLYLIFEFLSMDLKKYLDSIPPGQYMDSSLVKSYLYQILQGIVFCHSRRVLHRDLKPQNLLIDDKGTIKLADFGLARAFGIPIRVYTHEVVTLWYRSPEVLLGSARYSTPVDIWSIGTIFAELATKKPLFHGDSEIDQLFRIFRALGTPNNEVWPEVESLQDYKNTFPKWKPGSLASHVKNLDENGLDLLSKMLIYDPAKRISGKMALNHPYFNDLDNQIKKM
Sequence of CDK1/cyclin B (P14635 whole entry partner): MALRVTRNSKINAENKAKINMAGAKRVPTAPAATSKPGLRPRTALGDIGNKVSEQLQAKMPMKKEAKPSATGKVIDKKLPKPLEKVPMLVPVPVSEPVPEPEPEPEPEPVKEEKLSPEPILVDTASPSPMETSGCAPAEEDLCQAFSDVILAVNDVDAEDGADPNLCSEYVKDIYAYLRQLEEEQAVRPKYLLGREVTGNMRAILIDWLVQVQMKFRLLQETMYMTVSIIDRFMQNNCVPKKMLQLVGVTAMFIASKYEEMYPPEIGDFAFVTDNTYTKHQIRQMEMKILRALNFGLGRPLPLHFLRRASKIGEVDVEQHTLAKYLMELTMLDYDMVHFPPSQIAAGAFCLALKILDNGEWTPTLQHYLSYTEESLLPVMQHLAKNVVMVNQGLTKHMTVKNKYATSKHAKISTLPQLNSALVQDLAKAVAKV
Sequence of IRAK1 (P51617 whole entry): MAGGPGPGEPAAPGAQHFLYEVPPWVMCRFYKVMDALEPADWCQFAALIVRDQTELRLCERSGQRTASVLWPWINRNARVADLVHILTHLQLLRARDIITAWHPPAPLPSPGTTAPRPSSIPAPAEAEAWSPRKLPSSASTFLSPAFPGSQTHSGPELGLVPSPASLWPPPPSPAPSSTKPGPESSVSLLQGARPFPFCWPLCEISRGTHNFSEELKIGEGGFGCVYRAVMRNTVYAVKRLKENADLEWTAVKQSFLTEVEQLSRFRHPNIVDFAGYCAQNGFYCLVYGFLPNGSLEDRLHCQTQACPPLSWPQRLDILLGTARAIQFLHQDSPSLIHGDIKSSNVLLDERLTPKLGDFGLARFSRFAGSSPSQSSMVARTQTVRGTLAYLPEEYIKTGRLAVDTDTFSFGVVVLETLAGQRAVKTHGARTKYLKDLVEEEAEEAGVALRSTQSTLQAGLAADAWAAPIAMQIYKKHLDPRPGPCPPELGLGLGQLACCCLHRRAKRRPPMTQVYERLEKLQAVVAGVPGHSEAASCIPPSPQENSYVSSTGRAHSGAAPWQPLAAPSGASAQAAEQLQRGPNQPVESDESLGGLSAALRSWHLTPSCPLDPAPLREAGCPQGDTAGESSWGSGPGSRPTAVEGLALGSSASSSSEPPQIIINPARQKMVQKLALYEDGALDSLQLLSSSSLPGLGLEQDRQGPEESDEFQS
Sequence of CDK8/cyclin C (P49336 whole entry): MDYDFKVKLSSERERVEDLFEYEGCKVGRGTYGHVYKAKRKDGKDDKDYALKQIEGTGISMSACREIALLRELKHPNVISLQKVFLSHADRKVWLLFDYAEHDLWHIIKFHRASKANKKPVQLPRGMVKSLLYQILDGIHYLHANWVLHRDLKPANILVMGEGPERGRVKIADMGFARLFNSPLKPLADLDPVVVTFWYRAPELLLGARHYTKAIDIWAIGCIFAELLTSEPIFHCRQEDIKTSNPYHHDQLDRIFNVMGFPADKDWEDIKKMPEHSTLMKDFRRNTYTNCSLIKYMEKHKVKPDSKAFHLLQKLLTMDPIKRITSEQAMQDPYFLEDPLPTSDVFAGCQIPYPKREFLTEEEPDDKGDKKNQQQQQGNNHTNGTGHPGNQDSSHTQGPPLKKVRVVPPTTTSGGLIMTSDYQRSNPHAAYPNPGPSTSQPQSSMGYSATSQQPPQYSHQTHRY
Sequence of CDK8/cyclin C (P24863 whole entry partner): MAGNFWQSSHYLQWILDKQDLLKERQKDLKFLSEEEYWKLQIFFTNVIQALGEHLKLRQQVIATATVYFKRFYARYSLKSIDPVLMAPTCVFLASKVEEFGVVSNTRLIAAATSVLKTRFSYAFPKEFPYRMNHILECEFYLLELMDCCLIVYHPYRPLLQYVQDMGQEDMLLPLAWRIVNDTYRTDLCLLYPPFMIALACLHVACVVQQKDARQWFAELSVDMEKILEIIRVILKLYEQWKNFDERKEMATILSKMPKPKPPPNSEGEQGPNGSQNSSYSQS

On to `CN(C)C/C=C/C(=O)Nc1ccc(C(=O)Nc2cccc(Nc3ncc(Cl)c(-c4c[nH]c5ccccc45)n3)c2)cc1` [Formula I-23], for which the pIC50 is more than 7.00 in test [1]; 6.00 to 7.00 in test [2]; not above 6.00 in test [3]; more than 7.00 in test [4]; more than 6.30 in test [5]; more than 6.30 in [6]. For the same compound, the pIC50 in test [7] is more than 6.30; in [8], more than 6.30; in test [9], more than 6.30; in test [10] it was more than 6.30; in test [11] it was 5.30 to 6.30; in test [12], more than 6.30. In addition, in [13], the pIC50 is less than 5.30. Moreover, the “Sensitivity of untransformed RPE1 cells” value in test [14] is recorded as “largely resistant”. In [15], the “Anti-proliferative activity in MM cell lines” value is on record as “highly effective anti-proliferative activity”. Further, the “Reduction of BCL-XL protein levels” value in test [16] is reported as “not reduced even at higher concentrations”. In addition, the “Concentration sufficient to elicit a reduction in MCL-1 protein levels” value in test [17] is listed as not above 100 nM. Further, the “CDK7 occupancy (association with chromatin)” value in test [18] was “did not disrupt CDK7 occupancy”.
